In general, IC50 refers to the concentration that inhibits the measured activity by half.

Here are results for 25 compounds from patent US10577363B2, “Substituted piperidine compounds” (EPIZYME, INC., priority 2014, dated 2020).

Where only a bound is given, the exact number is not on record here.

Experiment [1] deals with T1, SMYD3 (Homo sapiens (Human), UniProt Q9H7B4). Briefly: SMYD3 biochemical assay (SPA, 3H-SAM methylation of MEKK2 protein substrate). Conditions: read-out: SMYD3 Biochem IC50 (μM)*. In short, it runs like this:
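Tritium incorporation into GST-MEKK2 is counted by scintillation proximity after citric acid bead capture. Native human SMYD3 is preincubated with test compound for 30 min at room temperature at pH 8.0 (Tris-Cl, TCEP, BSG, Tween 20) before 3H-SAM and substrate are added; cold SAM at 100 uM final stops turnover.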

The target of experiment [2] is T1, SMYD3. Briefly: SMYD3 cell assay (Trimethyl-MEKK2 In-Cell Western in 293T/17 cells). In kind it is cell-based. To be noted: 293T/17 cells; read-out: SMYD3 Cell IC50 (μM)*. The method, boiled down: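 In-Cell Western ratio of trimethyl-Lys260 MEKK2 to anti-flag signal; percent inhibition from DMSO and maximum-inhibition controls, IC50 by non-linear regression, triplicates.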

T1 sequence (Q9H7B4 whole entry): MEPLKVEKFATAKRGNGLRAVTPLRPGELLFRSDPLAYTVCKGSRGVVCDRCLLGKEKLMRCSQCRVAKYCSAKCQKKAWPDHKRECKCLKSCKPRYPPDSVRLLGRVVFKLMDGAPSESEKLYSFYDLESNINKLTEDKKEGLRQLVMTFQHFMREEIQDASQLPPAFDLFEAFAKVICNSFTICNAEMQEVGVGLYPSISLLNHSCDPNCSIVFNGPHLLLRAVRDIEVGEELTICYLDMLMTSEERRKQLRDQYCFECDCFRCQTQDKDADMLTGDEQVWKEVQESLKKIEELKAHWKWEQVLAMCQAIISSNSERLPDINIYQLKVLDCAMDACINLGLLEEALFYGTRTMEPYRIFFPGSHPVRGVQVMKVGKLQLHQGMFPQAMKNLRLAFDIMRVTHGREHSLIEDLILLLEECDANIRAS

`CC(=O)Nc1ccc(S(=O)(=O)N2C3CCCC2CC(NC(=O)c2cc(C4CC4)on2)C3)cc1` (centres unmarked) [compound 402, N-(9-((4-acetamidophenyl)sulfonyl)-9-azabicyclo[3.3.1]nonan-3-yl)-5-cyclopropylisoxazole-3-carboxamide]: the IC50 at SMYD3 [1] is 4.92 µM; on SMYD3 [2], greater than 10 µM.

Regarding `CC(=O)Nc1ccc(S(=O)(=O)N2[C@@H]3CC[C@H]2C[C@@H](NC(=O)c2cc(C4CC4)on2)C3)cc1` [compound 403, N-((1R,3r,5S)-8-((4-acetamidophenyl)sulfonyl)-8-azabicyclo[3.2.1]octan-3-yl)-5-cyclopropylisoxazole-3-carboxamide], the figures for the IC50 on SMYD3 [1] and on SMYD3 [2] were 10 µM and greater than 10 µM, respectively.

With `O=C(N[C@@H]1C[C@H]2CC[C@@H](C1)N2S(=O)(=O)c1ccc2[nH]c(=O)oc2c1)c1cc(C2CC2)on1` [compound 404, 5-cyclopropyl-N-((1R,3s,5S)-8-((2-oxo-2,3-dihydrobenzo[d]oxazol-6-yl)sulfonyl)-8-azabicyclo[3.2.1]octan-3-yl)isoxazole-3-carboxamide], the results for the IC50 on SMYD3 [1] and at SMYD3 [2] were 1.4 µM and 2.92 µM, respectively.

For `O=C(N[C@H]1C[C@H]2CC[C@@H](C1)N2S(=O)(=O)c1ccc2[nH]c(=O)oc2c1)c1cc(C2CC2)on1` [compound 405, 5-cyclopropyl-N-((1R,3r,5S)-8-((2-oxo-2,3-dihydrobenzo[d]oxazol-6-yl)sulfonyl)-8-azabicyclo[3.2.1]octan-3-yl)isoxazole-3-carboxamide], the IC50 was 9.39 µM on SMYD3 [1] and greater than 10 µM on SMYD3 [2].

Turning to `O=C(N[C@@H]1CCN(S(=O)(=O)CCN2CCCC2)[C@H](Cc2ccccc2)C1)c1cc(C2CC2)on1` [compound 407, N-((2R,4R)-2-benzyl-1-((2-(pyrrolidin-1-yl)ethyl)sulfonyl)piperidin-4-yl)-5-cyclopropylisoxazole-3-carboxamide], the IC50 at SMYD3 [1] is 3.81 µM; on SMYD3 [2], greater than 10 µM.

Take `O=C(NC1CC2CCCC(C1)N2S(=O)(=O)CCCN1CCOCC1)c1cc(C2CC2)on1` (centres unmarked) [compound 410, 5-cyclopropyl-N-(9-((3-morpholinopropyl)sulfonyl)-9-azabicyclo[3.3.1]nonan-3-yl)isoxazole-3-carboxamide]: the IC50 is 6.32 µM on SMYD3 [1] and greater than 10 µM at SMYD3 [2].

`COCCN(C)c1ccc(S(=O)(=O)N2CC[C@H](NC(=O)c3cc(C4CC4)on3)C[C@@H]2C)cn1` [compound 412, 5-cyclopropyl-N-((2S,4S)-1-((6-((2-methoxyethyl)(methyl)amino)pyridin-3-yl)sulfonyl)-2-methylpiperidin-4-yl)isoxazole-3-carboxamide]: the IC50 at SMYD3 [1] worked out at 2.12 µM; on SMYD3 [2], 8.22 µM.

`COCCNc1ccc(S(=O)(=O)N2CC[C@H](NC(=O)c3cc(C4CC4)on3)C[C@@H]2C)cn1` [compound 413, 5-cyclopropyl-N-((2S,4S)-1-((6-((2-methoxyethyl)amino)pyridin-3-yl)sulfonyl)-2-methylpiperidin-4-yl)isoxazole-3-carboxamide]: the half-inhibitory concentration (IC50) worked out at 1.48 µM at SMYD3 [1] and 4.51 µM at SMYD3 [2].

Consider `C[C@H]1C[C@@H](NC(=O)c2cc(C3CC3)on2)CCN1S(=O)(=O)c1ccc(N(C)CCN2CCOCC2)nc1` [compound 414, 5-cyclopropyl-N-((2S,4S)-2-methyl-1-((6-(methyl(2-morpholinoethyl)amino)pyridin-3-yl)sulfonyl)piperidin-4-yl)isoxazole-3-carboxamide], for which the IC50 on SMYD3 [1] was 0.889 µM; at SMYD3 [2], 2.61 µM.

As for `C[C@H]1C[C@H](NC(=O)c2cc(C3CC3)on2)CCN1S(=O)(=O)c1ccc(NCCN)nc1` [compound 415, N-((2S,4R)-1-((6-((2-aminoethyl)amino)pyridin-3-yl)sulfonyl)-2-methylpiperidin-4-yl)-5-cyclopropylisoxazole-3-carboxamide], the half-inhibitory concentration (IC50) was determined as 0.135 µM on SMYD3 [1] and 5.62 µM on SMYD3 [2].

For the compound `C[C@H]1CN(C(=O)[C@H]2CC[C@H](N)CC2)[C@@H](C)C[C@H]1NC(=O)c1cc(C2CC2)on1` [compound 419, N-((2S,4R,5S)-1-((1r,4S)-4-aminocyclohexane-1-carbonyl)-2,5-dimethylpiperidin-4-yl)-5-cyclopropylisoxazole-3-carboxamide], the IC50 on SMYD3 [1] was 1.95 µM; at SMYD3 [2] it was greater than 10 µM.

Take `NCCCS(=O)(=O)N1CC[C@H](NC(=O)c2cc(C3CC3)on2)C[C@H]1Cc1ccccc1` [compound 423, N-((2R,4S)-1-((3-aminopropyl)sulfonyl)-2-benzylpiperidin-4-yl)-5-cyclopropylisoxazole-3-carboxamide]: the values for the IC50 at SMYD3 [1] and on SMYD3 [2] were 0.25 µM and 1.86 µM, respectively.

As for `NCCCS(=O)(=O)N1CC[C@H](NC(=O)c2cc(C3CC3)on2)C[C@@H]1Cc1ccccc1` [compound 424, N-((2S,4S)-1-((3-aminopropyl)sulfonyl)-2-benzylpiperidin-4-yl)-5-cyclopropylisoxazole-3-carboxamide], the IC50 on SMYD3 [1] turned out to be 0.228 µM; at SMYD3 [2], 1.8 µM.

Regarding `CC1CC(NC(=O)c2cc(C3CC3)on2)CCN1C(=O)Cc1ncc[nH]1` (centres unmarked) [compound 427, N-(1-(2-(1H-imidazol-2-yl)acetyl)-2-methylpiperidin-4-yl)-5-cyclopropylisoxazole-3-carboxamide], the half-inhibitory concentration (IC50) on SMYD3 [1] and on SMYD3 [2] was greater than 10 µM throughout.

Turning to `C[C@@H]1C[C@H](NC(=O)c2cc(C3CC3)on2)CCN1S(=O)(=O)c1c[nH]cn1` [compound 428, N-((2R,4R)-1-((1H-imidazol-4-yl)sulfonyl)-2-methylpiperidin-4-yl)-5-cyclopropylisoxazole-3-carboxamide], the IC50 worked out at 0.732 µM on SMYD3 [1] and 2.58 µM on SMYD3 [2].

In the case of `CC(=O)Nc1ccc(S(=O)(=O)N2[C@@H]3CC[C@H]2C[C@H](NC(=O)c2cc(C4CC4)on2)C3)cc1` [compound 430, N-((1R,3s,5S)-8-((4-acetamidophenyl)sulfonyl)-8-azabicyclo[3.2.1]octan-3-yl)-5-cyclopropylisoxazole-3-carboxamide], the half-maximal inhibitory concentration (IC50) was determined as 3.66 µM on SMYD3 [1] and 4.52 µM at SMYD3 [2].

For the compound `O=C(Nc1ccc(S(=O)(=O)N2[C@@H]3CC[C@H]2C[C@@H](NC(=O)c2cc(C4CC4)on2)C3)cc1)c1ccncc1` [compound 431, 5-cyclopropyl-N-((1R,3r,5S)-8-((4-(isonicotinamido)phenyl)sulfonyl)-8-azabicyclo[3.2.1]octan-3-yl)isoxazole-3-carboxamide], the IC50 at SMYD3 [1] and on SMYD3 [2] was greater than 10 µM each time.

For the compound `O=C1Cc2cc(S(=O)(=O)N3[C@@H]4CC[C@H]3C[C@@H](NC(=O)c3cc(C5CC5)on3)C4)c(Cl)cc2N1` [compound 432, N-((1R,3r,5S)-8-((6-chloro-2-oxoindolin-5-yl)sulfonyl)-8-azabicyclo[3.2.1]octan-3-yl)-5-cyclopropylisoxazole-3-carboxamide], the IC50 at SMYD3 [1] was 6.3 µM; at SMYD3 [2], greater than 10 µM.

As for `O=C1Cc2cc(S(=O)(=O)N3[C@@H]4CC[C@H]3C[C@@H](NC(=O)c3cc(C5CC5)on3)C4)ccc2N1` [compound 433, 5-cyclopropyl-N-((1R,3r,5S)-8-((2-oxoindolin-5-yl)sulfonyl)-8-azabicyclo[3.2.1]octan-3-yl)isoxazole-3-carboxamide], the figures for the IC50 at SMYD3 [1] and at SMYD3 [2] were 4.19 µM and greater than 10 µM, respectively.

As for `O=C(N[C@H]1C[C@H]2CC[C@@H](C1)N2S(=O)(=O)c1ccc2[nH]c(=O)[nH]c2c1)c1cc(C2CC2)on1` [compound 434, 5-cyclopropyl-N-((1R,3r,5S)-8-((2-oxo-2,3-dihydro-1H-benzo[d]imidazol-5-yl)sulfonyl)-8-azabicyclo[3.2.1]octan-3-yl)isoxazole-3-carboxamide], the IC50 on SMYD3 [1] is 2.41 µM; on SMYD3 [2], greater than 10 µM.

Turning to `O=C(N[C@@H]1C[C@H]2CC[C@@H](C1)N2S(=O)(=O)CCN1CCCC1)c1cc(C2CC2)on1` [compound 435, 5-cyclopropyl-N-((1R,3s,5S)-8-((2-(pyrrolidin-1-yl)ethyl)sulfonyl)-8-azabicyclo[3.2.1]octan-3-yl)isoxazole-3-carboxamide], the half-inhibitory concentration (IC50) at SMYD3 [1] is 2 µM; at SMYD3 [2], 5.59 µM.

On to `O=C(N[C@H]1CCN(S(=O)(=O)CCN2CCCC2)[C@@H](Cc2ccccc2)C1)c1cc(C2CC2)on1` [compound 437, N-((2S,4S)-2-benzyl-1-((2-(pyrrolidin-1-yl)ethyl)sulfonyl)piperidin-4-yl)-5-cyclopropylisoxazole-3-carboxamide], for which the IC50 on SMYD3 [1] came to 1 µM; at SMYD3 [2] it was 4.62 µM.

Regarding `O=C(N[C@@H]1CCN(S(=O)(=O)CCCN2CCOCC2)[C@@H](Cc2ccccc2)C1)c1cc(C2CC2)on1` [compound 438, N-((2S,4R)-2-benzyl-1-((3-morpholinopropyl)sulfonyl)piperidin-4-yl)-5-cyclopropylisoxazole-3-carboxamide], the IC50 is 9.18 µM at SMYD3 [1] and greater than 10 µM at SMYD3 [2].

As to `O=C(N[C@@H]1CCN(S(=O)(=O)CCCN2CCOCC2)[C@H](Cc2ccccc2)C1)c1cc(C2CC2)on1` [compound 439, N-((2R,4R)-2-benzyl-1-((3-morpholinopropyl)sulfonyl)piperidin-4-yl)-5-cyclopropylisoxazole-3-carboxamide], the IC50 at SMYD3 [1] and at SMYD3 [2] was greater than 10 µM throughout.

With `O=C(N[C@@H]1C[C@H]2CC[C@@H](C1)N2S(=O)(=O)CCN1CCOCC1)c1cc(C2CC2)on1` [compound 440, 5-cyclopropyl-N-((1R,3s,5S)-8-((2-morpholinoethyl)sulfonyl)-8-azabicyclo[3.2.1]octan-3-yl)isoxazole-3-carboxamide], the IC50 on SMYD3 [1] and at SMYD3 [2] was greater than 10 µM each time.
